# Source: patent US20070219193A1, “ALKYLAMINE-SUBSTITUTED BICYCLIC ARYL COMPOUNDS USEFUL AS MODULATORS OF PPAR” (KALYPSYS, INC, priority 2006, published 2007)
# What was measured:
# Format in all cases: cell-based
# [1] = biological target: T1, PPAR alpha (Homo sapiens, UniProt Q07869); test: Full-length PPAR transcriptional activation assay (PPRE::Luciferase reporter, HEK293 cells), PPAR alpha; conditions: transfected HEK293 cells, species of receptor not given
# T1 construct: expressed in transfected cells; host or cells: HEK293
# T1 sequence (Q07869 1-468): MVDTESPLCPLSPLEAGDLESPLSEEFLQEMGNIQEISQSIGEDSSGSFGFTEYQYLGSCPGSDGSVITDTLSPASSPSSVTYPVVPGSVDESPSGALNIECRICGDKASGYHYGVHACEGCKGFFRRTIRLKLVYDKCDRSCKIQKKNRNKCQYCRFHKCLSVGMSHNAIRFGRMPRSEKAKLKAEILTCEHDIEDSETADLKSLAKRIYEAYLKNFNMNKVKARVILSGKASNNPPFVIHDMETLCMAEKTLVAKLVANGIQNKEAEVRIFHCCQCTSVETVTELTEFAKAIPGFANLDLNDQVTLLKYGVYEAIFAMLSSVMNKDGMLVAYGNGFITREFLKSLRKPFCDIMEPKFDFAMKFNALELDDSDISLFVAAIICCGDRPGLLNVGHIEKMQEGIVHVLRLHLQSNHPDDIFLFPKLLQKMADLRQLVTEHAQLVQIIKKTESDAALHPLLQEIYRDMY
# Procedure: (§1) HEK293 cells were seeded the day before transfection into 384-well plates at a cell density of 6,000 cells per well in 40 μl assay medium I (phenol red-free DMEM containing 4% charcoal-dextran stripped FBS, 1% Penicillin-Streptomycin and 1% GlutaMax-1). Then 25 ng of PPRE::Luciferase reporter plasmid, an expression plasmid (25 pg of PPARα, or 40 pg of PPARδ, or 75 pg of PPARγ2), and an appropriate amount of the plasmid pUC19 to bring the total DNA amount to 50 ng was added to 20 μl of phenol-red free DMEM and 150 nL of Fugene 6 and incubated for 30 minutes. The transfection mixtures were then added to the cells and incubated for three hours. 10 μl of test agents in 5% DMSO were then added to the cells and incubated at 37° C. for an additional 18 hours. Luciferase activity was then assayed by adding 25 μl/well of Britelite (Perkin Elmer) according to the manufacturer's protocol and relative light output was measured with an Analyst GT plate reader (Molecular Devices). All experimental points were done in triplicate and the assays were repeated at least 3 times.
# (§2) HEK293 cells were seeded the day before transfection in […] dishes at a density of 9×10^6 cells/dish and incubated at 37° C., 10% CO2 for 16-24 hours. Then, […] of PPRE::Luciferase reporter plasmid, an expression plasmid (7.5 ng of PPARα, or 7.5 ng of PPARδ, or 75 ng of PPARγ2), and an appropriate amount of the plasmid pUC19 to bring the total DNA amount to […] were mixed with 54 μl of Fugene 6 in 2 mls of phenol red-free DMEM and incubated for 30 minutes. Transfection mixtures were then incubated with the cells for 18 hours. Cells were then replated into sterile, white TC treated 384-well assay plates at a cell density of 24×10^3 cells/well in 40 μl of assay medium II (phenol-red free DMEM containing 3% charcoal/dextran-stripped FBS, 1% Penicillin-Streptomycin and 1% GlutaMax-1) and incubated at 37° C. for 6 hours. 10 μl of test agents in 5% DMSO were then added to the cells and incubated at 37° C. for an additional 18 hours. Luciferase activity was then assayed by adding 30 μl/well of Britelite (Perkin Elmer) according to the manufacturer's protocol and relative light output was measured with an Analyst GT plate reader (Molecular Devices). All experimental points were done in triplicate and the assays were repeated 3 times.
# [2] = biological target: T2, PPAR delta (Homo sapiens, UniProt Q03181); test: Full-length PPAR transcriptional activation assay (PPRE::Luciferase reporter, HEK293 cells), PPAR delta; conditions: transfected HEK293 cells, species of receptor not given
# T2 construct: expressed in transfected cells; host or cells: HEK293
# T2 sequence (Q03181 1-441): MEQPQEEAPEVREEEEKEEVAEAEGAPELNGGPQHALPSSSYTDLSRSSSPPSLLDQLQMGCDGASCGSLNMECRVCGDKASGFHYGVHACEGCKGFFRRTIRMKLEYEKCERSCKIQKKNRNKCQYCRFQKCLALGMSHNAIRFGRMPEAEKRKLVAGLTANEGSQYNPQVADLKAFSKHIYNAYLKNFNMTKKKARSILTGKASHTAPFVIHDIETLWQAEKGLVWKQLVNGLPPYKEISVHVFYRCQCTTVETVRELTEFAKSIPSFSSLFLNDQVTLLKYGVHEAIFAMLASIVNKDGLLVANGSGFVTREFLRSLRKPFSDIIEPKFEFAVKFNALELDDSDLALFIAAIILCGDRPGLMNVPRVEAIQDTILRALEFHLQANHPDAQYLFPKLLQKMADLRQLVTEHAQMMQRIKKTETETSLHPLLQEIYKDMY
# Procedure: as §1, §2
# [3] = biological target: T3, PPAR gamma (Homo sapiens, UniProt P37231); test: Full-length PPAR transcriptional activation assay (PPRE::Luciferase reporter, HEK293 cells), PPAR gamma; conditions: transfected HEK293 cells (PPARγ2 plasmid), species of receptor not given
# T3 construct: expressed in transfected cells; host or cells: HEK293
# T3 sequence (P37231 1-505): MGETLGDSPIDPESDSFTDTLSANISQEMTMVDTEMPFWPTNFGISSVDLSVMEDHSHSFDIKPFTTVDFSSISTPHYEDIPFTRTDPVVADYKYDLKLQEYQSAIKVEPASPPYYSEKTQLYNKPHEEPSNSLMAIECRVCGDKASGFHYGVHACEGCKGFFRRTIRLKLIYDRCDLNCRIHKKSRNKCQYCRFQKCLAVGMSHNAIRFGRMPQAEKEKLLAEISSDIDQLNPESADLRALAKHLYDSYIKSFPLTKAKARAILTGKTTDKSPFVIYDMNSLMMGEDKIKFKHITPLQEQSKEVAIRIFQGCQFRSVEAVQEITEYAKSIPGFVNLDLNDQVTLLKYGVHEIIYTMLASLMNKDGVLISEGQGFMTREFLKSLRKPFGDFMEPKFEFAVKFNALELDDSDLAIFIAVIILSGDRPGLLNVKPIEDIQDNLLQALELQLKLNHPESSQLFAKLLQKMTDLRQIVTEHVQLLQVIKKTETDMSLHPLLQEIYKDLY
# Procedure: as §1, §2
Structure (SMILES),EC50 [1] [nM],EC50 [2] [nM],EC50 [3] [nM]
"CCc1cnc(N(CCCC2CCc3c(CC(=O)O)cccc3O2)Cc2ccc(C(F)(F)F)cc2)nc1 (stereo not drawn) [Example 11, (2-{3-[(5-Ethyl-pyrimidin-2-yl)-(4-trifluoromethyl-benzyl)-amino]-propyl}-chroman-5-yl)-acetic acid]",> 1000,≤ 1000,≤ 1000
"CCc1cnc(N(CCCC2CCc3c(CC(=O)O)cccc3O2)CCc2ccc(OC(F)(F)F)cc2)nc1 (stereo not drawn) [Example 15, 2-(2-(3-((5-Ethylpyrimidin-2-yl)(4-(trifluoromethoxy)phenethyl)amino)propyl)chroman-5-yl)acetic acid]",> 1000,≤ 1000,≤ 1000
"CCc1cnc(N(CCCC2CCc3c(CC(=O)O)cccc3O2)Cc2ccc(OC(F)(F)F)cc2)nc1 (stereo not drawn) [Example 13, 2-(2-(3-((5-Ethylpyrimidin-2-yl)(4-(trifluoromethoxy)benzyl)amino)propyl)chroman-5-yl)acetic acid]",> 1000,≤ 1000,≤ 1000
"CCc1cnc(N(CCN2CCc3ccc(CC(=O)O)cc3C2)Cc2ccc(OC(F)(F)F)cc2)nc1 [Example 3, (2-{2-[(5-Ethyl-pyrimidin-2-yl)-(4-trifluoromethoxy-benzyl)-amino]-ethyl}-1,2,3,4-tetrahydro-isoquinolin-7-yl)-acetic acid]",> 1000,≤ 1000,≤ 1000
"CCc1cnc(N(CCc2ccc(C(F)(F)F)cc2)CCN2CCc3ccc(CC(=O)O)cc3C2)nc1 [Example 8, [2-(2-{(5-Ethyl-pyrimidin-2-yl)-[2-(4-trifluoromethyl-phenyl)-ethyl]-amino}-ethyl)-1,2,3,4-tetrahydro-isoquinolin-7-yl]-acetic acid]",> 1000,≤ 1000,> 1000
"CCc1cnc(N(CCCN2CCc3ccc(CC(=O)O)cc3C2)c2ccc(OC(F)(F)F)cc2)nc1 [Example 6, (2-{3-[(5-Ethyl-pyrimidin-2-yl)-(4-trifluoromethoxy-phenyl)-amino]-propyl}-1,2,3,4-tetrahydroisoquinolin-7-yl)-acetic acid]",> 1000,> 1000,> 1000
"CCc1cnc(N(CCCN2CCc3ccc(CC(=O)O)cc3C2)Cc2ccc(C(F)(F)F)cc2C(F)(F)F)nc1 [Example 2, (2-{3-[(2,4-Bis-trifluoromethyl-benzyl)-(5-ethyl-pyrimidin-2-yl)-amino]-propyl}-1,2,3,4-tetrahydro-isoquinolin-7-yl)-acetic acid]",> 1000,≤ 1000,≤ 1000
"CCc1cnc(N(CCCN2CCc3ccc(CC(=O)O)cc3C2)Cc2ccc(OC(F)(F)F)cc2)nc1 [Example 1, (2-{3-[(5-Ethyl-pyrimidin-2-yl)-(4-trifluoromethoxy-benzyl)-amino]-propyl}-1,2,3,4-tetrahydro-isoquinolin-7-yl)-acetic acid]",> 1000,≤ 1000,≤ 1000
"CCc1cnc(N(CCC2CCc3c(CC(=O)O)cccc3O2)Cc2ccc(C(F)(F)F)cc2)nc1 (stereo not drawn) [Example 17, 2-(2-(2-((5-ethylpyrimidin-2-yl)(4-(trifluoromethyl)benzyl)amino)ethyl)chroman-5-yl)acetic acid]",≤ 1000,≤ 1000,≤ 1000
"CCc1cnc(N(CCC2CCc3ccc(CC(=O)O)cc3O2)Cc2ccc(C(F)(F)F)cc2)nc1 (stereo not drawn) [Example 16, 2-(2-(2-((5-ethylpyrimidin-2-yl)(4-(trifluoromethyl)benzyl)amino)ethyl)chroman-7-yl)acetic acid]",≤ 1000,≤ 1000,≤ 1000
"CCc1cnc(N(CCCC2CCc3ccc(CC(=O)O)cc3O2)Cc2ccc(OC(F)(F)F)cc2)nc1 (stereo not drawn) [Example 12, 2-(2-(3-((5-Ethylpyrimidin-2-yl)(4-(trifluoromethoxy)benzyl)amino)propyl)chroman-7-yl)acetic acid]",> 1000,≤ 1000,≤ 1000

# Further lines, results first:
EC50 [1] [nM],EC50 [2] [nM],EC50 [3] [nM],Structure (SMILES)
> 1000,≤ 1000,≤ 1000,"CCc1cnc(N(CCCC2Oc3cccc(CC(=O)O)c3CC2C)Cc2ccc(OC(F)(F)F)cc2)nc1 (single isomer, unassigned) [Example 19B, 2-(2-(3-((5-ethylpyrimidin-2-yl)(4-(trifluoromethoxy)benzyl)amino)propyl)-3-methylchroman-5-yl)acetic acid]"
> 1000,≤ 1000,≤ 1000,"CCc1cnc(N(CCCC2Oc3cccc(CC(=O)O)c3CC2C)Cc2ccc(OC(F)(F)F)cc2)nc1 (single isomer, unassigned) [Example 19C, 2-(2-(3-((5-ethylpyrimidin-2-yl)(4-(trifluoromethoxy)benzyl)amino)propyl)-3-methylchroman-5-yl)acetic acid]"
> 1000,≤ 1000,≤ 1000,"CCc1cnc(N(CCCC2Oc3cccc(CC(=O)O)c3CC2C)Cc2ccc(OC(F)(F)F)cc2)nc1 (single isomer, unassigned) [Example 19D, 2-(2-(3-((5-ethylpyrimidin-2-yl)(4-(trifluoromethoxy)benzyl)amino)propyl)-3-methylchroman-5-yl)acetic acid]"
> 1000,≤ 1000,≤ 1000,"CCc1cnc(N(CCCC2Oc3cc(CC(=O)O)ccc3CC2C)Cc2ccc(OC(F)(F)F)cc2)nc1 (single isomer, unassigned) [Example 18D]"
> 1000,≤ 1000,≤ 1000,"CCc1cnc(N(CCCC2Oc3cc(CC(=O)O)ccc3CC2C)Cc2ccc(OC(F)(F)F)cc2)nc1 (single isomer, unassigned) [Example 18A, 2-(2-(3-((5-ethylpyrimidin-2-yl)(4-(trifluoromethoxy)benzyl)amino)propyl)-3-methylchroman-7-yl)acetic acid]"
≤ 1000,≤ 1000,> 1000,"CCc1cnc(N(CCCC2Oc3cc(CC(=O)O)ccc3CC2C)Cc2ccc(OC(F)(F)F)cc2)nc1 (single isomer, unassigned) [Example 18C]"
